Results published in patent US8653071B2, “α4β2 neuronal nicotinic acetylcholine receptor ligands” (Suven Life Sciences Limited, priority 2009, dated 2014).

Tests used:
[1] = tested on: Male Sprague Dawley rats; experiment: DRL-72s model of animal depression; format: in vivo; conditions: p.o.; rat
Method: The antidepressant properties of compounds of this invention were evaluated using a model of animal depression: the DRL-72s model. Male Sprague Dawley rats were used as experimental animals. Rats are trained to lever press for a 4″ access to 0.025 ml of water for each correct response during daily 60 minute sessions. All testing takes place on weekdays only. At the beginning of each session, the house light is illuminated and remains lit until the session ends. No other stimuli are presented during testing. After successful lever press training, rats are then required to respond under a DRL-24 second schedule, where only lever presses that are separated by 24 seconds are reinforced. Upon stable responding on a DRL-24 second schedule (5-10 sessions), rats are trained on a DRL-72 second schedule until responding stabilizes at approximately 15% efficiency (approx 25-35 sessions). Specifically, rats receive a reinforcer for each response that is emitted at least 72 seconds after the previous response (IRT). […] Efficiency is recorded as number of reinforced responses÷total number of responses. After stable baseline responding is achieved, defined as responding for 4 consecutive sessions with no more than 10% variability, animals begin drug testing. Animals receive drug no more than 1× per week.

[2] = tested on: Male Wister rats; experiment: Acute food intake study (animal model of hyperphagia); format: in vivo, rat; conditions: oral
Method: The appetite suppressing properties of compounds of this invention were studied using an animal model of hyperphagia.
Male Wister rats (200-210 grams) obtained from Raj Biotech, India were used as experimental animals. The experiment consisted of 6 days. The rats were adapted to the 18 hour fasting and 6 hour feeding pattern. The animals were housed in a group of three in the cages provided with the fasting grills and were fasted for 18 hours. After 18 hour fasting the rats were separated and placed individually in a cage. Weighed amount of feed was provided to rats for 6 hour and the feed intake at 1, 2, 4 and 6 hours was recorded. Again the rats were regrouped and fasted for 18 hour. The above procedure was followed for 5 days. The average cumulative food intake by the rats on the last 3 days was calculated. Animals were randomised on the basis of their last three days food intake.
One group of 8 rats received vehicle (2 mL/Kg) orally and another set of animals received compound of the formula (I) orally. Then the rats were given access to food and the food intake at 1, 2, 4 and 6 hours was recorded. The food intake by the rats treated with test compound was compared with the vehicle treated group by using students‘t’ test.

[3] = tested on: Male Sprague Dawley rats; experiment: Effect of test compounds on body weight gain in high fat fed rats; format: in vivo, rat; conditions: oral for 14 days, high fat diet fed rats
Text: Effect of Test Compounds on Body Weight Gain in High Fat Fed Rats
The body weight gain suppressing properties of compounds of this invention were studied using a animal model of obesity.
Male Sprague Dawley rats (150-160 grams) obtained from Reliance Life Sciences, India were used as experimental animals. Rats were fed with control diet (normal pellet diet) and lard based high fat diet (45% kcal diet) for 7-8 weeks. High fat diet fed animals was randomized according to their body weights. The animals were housed in a group of 3-4 per cage. One group of 10 rats received vehicle (2 mL/Kg) orally and another set of animals received compound of the formula (I) orally for 14 days. Body weight of the animals was recorded for first three consecutive days then it was recorded twice weekly. Weighed amount of food was given to the animals and food intake was recorded every 24 hour for the entire study period.

[4] = tested on: Male Wister rats; experiment: Object recognition task model; format: in vivo, rat; conditions: 1 mg/kg, p.o.
Method: Object Recognition Task Model
The cognition-enhancing properties of compounds of this invention were estimated using a model of animal cognition: the object recognition task model.
Male Wister rats (230-280 grams) obtained from N. I. N. (National Institute of Nutrition, Hyderabad, India) was used as experimental animals. Four animals were housed in each cage. […] Also the rats were habituated to individual arenas for 1 hour in the absence of any objects.
One group of 12 rats received vehicle (1 mL/Kg) orally and another set of animals received compound of the formula (I) either orally or i.p., before one hour of the familiar (T1) and choice trial (T2).
The experiment was carried out in a 50×50×50 cm open field made up of acrylic. In the familiarization phase, (T1), the rats were placed individually in the open field for 3 minutes, in which two identical objects (plastic bottles, 12.5 cm height×5.5 cm diameter) covered in yellow masking tape alone (a1 and a2) were positioned in two adjacent corners, 10 cm. from the walls. After 24 hours of the (T1) trial for long-term memory test, the same rats were placed in the same arena as they were placed in T1 trial. Choice phase (T2) rats were allowed to explore the open field for 3 minutes in presence of one familiar object (a3) and one novel object (b) (Amber color glass bottle, 12 cm high and 5 cm in diameter). Familiar objects presented similar textures, colors and sizes. During the T1 and T2 trial, explorations of each object (defined as sniffing, licking, chewing or having moving vibrissae whilst directing the nose towards the object at a distance of less than 1 cm) were recorded separately by stopwatch. Sitting on an object was not regarded as exploratory activity, however, it was rarely observed.
T1 is the total time spent exploring the familiar objects (a1+a2).
T2 is the total time spent exploring the familiar object and novel object (a3+b).
The object recognition test was performed as described by Ennaceur, A., Delacour, J., 1988, A new one-trial test for neurobiological studies of memory in rats—Behavioural data, Behav. Brain Res., 31, 47-59.

[5] = Rodent pharmacokinetic study; format: in vivo; conditions: Wistar, in vivo, Wister rat/Male
How it was run: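 Rats, fasted overnight, received NCE orally (15 or 5 mg/kg) and intravenously (5 mg/kg) on day 0 and day 2. Jugular blood sampled pre-dose to 24 h (n=3); plasma NCE measured by LC-MS/MS. Cmax, Tmax, AUCt, T1/2 and bioavailability derived by non-compartmental analysis.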

Q: For `CNCC1CC2CC2N1c1cccnc1.Cl` (centres unmarked) [Example 4, N-[2-(Pyridin-3-yl)-2-azabicyclo[3.1.0]hex-3-ylmethyl]methylamine hydrochloride], which “Dose (DRL-72s)” value [1] is on record?
A: The value was “≧10 mg/kg, p.o”.

Q: What about the Inference [2] of the same compound?
A: The Inference was “Active”.

Q: What about the “% Suppression of food intake compared to vehicle, 1 Hour” value ([2]; 1 Hour, 18 hour fasted rats) of the same compound?
A: The value was 38.45%.

Q: What about the “% Suppression of food intake compared to vehicle, 2 Hour” value ([2]; 2 Hour, 18 hour fasted rats) of the same compound?
A: The value was 30.23%.

Q: And the “% Suppression of food intake compared to vehicle, 4 Hour” value ([2]; 4 Hour, 18 hour fasted rats)?
A: The value was 25.60%.

Q: And the “% Suppression of food intake compared to vehicle, 6 Hour” value ([2]; 6 Hour, 18 hour fasted rats)?
A: Its value is 18.63%.

Q: What about the Inference [3] of the same compound?
A: Its Inference is “Active”.

Q: What about the “% Reduction in body weight gain compared to vehicle (Day 14)” value ([3]; Day 14) of the same compound?
A: The value was 3.3%.

Q: And the Inference [4]?
A: The Inference was “Active”.

Q: What about the “Exploration time mean ± S.E.M, Familiar object” value ([4]; choice trial) of the same compound?
A: The value was 7.64 ± 1.052 s.

Q: And the “Exploration time mean ± S.E.M, Novel object” value ([4]; choice trial)?
A: Its value is 14.21 ± 2.364 s.

Q: And the AUC(0-t) ([5]; 5 mg/kg, Intravenous)?
A: Its AUC(0-t) is 1670 ± 154 ng·h/mL.

Q: And the Cmax ([5]; 5 mg/kg, Intravenous)?
A: The Cmax was 956 ± 164 ng/mL.

Q: And the Tmax ([5]; 5 mg/kg, Intravenous)?
A: Its Tmax is 0.08 h.

Q: And the half-life ([5]; 5 mg/kg, Intravenous)?
A: The half-life was 5.82 ± 0.53 h.

Q: And the bioavailability ([5]; 15 mg/kg Per-Oral vs 5 mg/kg Intravenous)?
A: The bioavailability was 105 ± 9%.

Q: And the AUC(0-t) ([5]; 15 mg/kg, Per-Oral)?
A: Its AUC(0-t) is 5280 ± 652 ng·h/mL.

Q: What about the Cmax ([5]; 15 mg/kg, Per-Oral) of the same compound?
A: Its Cmax is 1560 ± 294 ng/mL.

Q: What about the Tmax ([5]; 15 mg/kg, Per-Oral) of the same compound?
A: The Tmax was 0.33 ± 0.14 h.

Q: What about the half-life ([5]; 15 mg/kg, Per-Oral) of the same compound?
A: Its half-life is 4.48 ± 0.76 h.
